Measured values as given in patent US11401279B2, “Pyrido[3,2-d]pyrimidine compounds as immunomodulators” (Incyte Corporation, priority 2019, dated 2022).

Tests used:
PD-1/PD-L1 = PD-1/PD-L1 (Homo sapiens (Human), UniProt Q9NZQ7); assay: Homogeneous Time-Resolved Fluorescence (HTRF) PD-1/PD-L1 binding assay; settings: recombinant human PD-1 and PD-L1
Experimental: The assays were conducted in a standard black 384-well polystyrene plate with a final volume of 20 μL. Inhibitors were first serially diluted in DMSO and then added to the plate wells before the addition of other reaction components. The final concentration of DMSO in the assay was 1%. The assays were carried out at 25° C. in the PBS buffer (pH 7.4) with 0.05% Tween-20 and 0.1% BSA. Recombinant human PD-L1 protein (19-238) with a His-tag at the C-terminus was purchased from AcroBiosystems (PD1-H5229). Recombinant human PD-1 protein (25-167) with Fc tag at the C-terminus was also purchased from AcroBiosystems (PD1-H5257). PD-L1 and PD-1 proteins were diluted in the assay buffer and 10 μL was added to the plate well. Plates were centrifuged and proteins were preincubated with inhibitors for 40 minutes. The incubation was followed by the addition of 10 μL of HTRF detection buffer supplemented with Europium cryptate-labeled anti-human IgG (PerkinElmer-AD0212) specific for Fc and anti-His antibody conjugated to SureLight®-Allophycocyanin (APC, PerkinElmer-AD0059H). After centrifugation, the plate was incubated at 25° C. for 60 min. before reading on a PHERAstar FS plate reader (665 nm/620 nm ratio). Final concentrations in the assay were—3 nM PD1, 10 nM PD-L1, 1 nM europium anti-human IgG and 20 nM anti-His-Allophycocyanin. IC50 determination was performed by fitting the curve of percent control activity versus the log of the inhibitor concentration using the GraphPad Prism 5.0 software.

[1] = test system: PD-L1 aAPC/CHO-K1 cells and Jurkat-PD-1-NFAT effector cells; assay: Nuclear factor of activated T-cells (NFAT) assay; assay type: cell-based; settings: Cricetulus griseus, CHO-K1; luminescence, 24 hours
Experimental: PD-L1 aAPC/CHO-Klcells (Promega) were maintained in F-12 medium with addition of 10% FBS, 200 μg/mL Hygromycin B, 250 μg/mL Geneticin (G418). Jurkat-PD-1-NFAT effector cells (Promega) were cultured in RPMI 1640 medium supplemented with 10% FBS, 100 μg/mL Hygromycin B, 500 μg/mL G418. The culture media of PD-L1 aAPC/CHO-K1 cells were first replaced with assay medium (RPMI1640 medium with 1% FBS). The PD-L1 aAPC/CHO-Klcells were then added in a white 384-well white clear bottom assay plate (CELLCOAT® Tissue Culture Plates, Greiner Bio-One) at 8000 per well in 10 μL assay medium. Test compounds were prepared by serial dilution in DMSO and 0.8 μL test compounds in DMSO were first transferred to the 384 REMP plate well (Thermofisher) by PlateMate Plus (Thermofisher) followed with addition of 50 μL plating medium. 5 μL compounds in the assay medium were transferred to the cells with 0.4% DMSO in the final assay at 2 μM. After removing the culture media, 10,000 Jurkat-PD-1-NFAT effector cells in 5 μL assay medium was dispensed into each well. The assay plate was incubated at 37° C., 5% CO2 for 24 hours. After the assay plate was equilibrated to room temp for 15 minutes, 20 μL/well of Bio-Glo™ reagent (Promega) were added. After 8 minutes incubation at room temperature, luminescence was read at with Pherastar microplate reader (BMG Labtech). The fold of induction (FOI) was calculated based on the ratio of luminescence normalized to the DMSO wells within each assay plate. The maximum percentage of induction was reported based on the ratio between the highest FOI of each compound and the maximum FOI of control compound within each assay plate. Wells with DMSO were served as the negative controls and wells containing control compound with the highest FOI were used as positive controls. EC50 determination was performed by fitting the curve of percent control activity versus the log of the compound concentration using the GraphPad Prism 6.0 software.

[2] = test system: U2OS/PD-L1 cells and Jurkat-PD-1-SHP cells; assay: Src homology region 2 domain-containing phosphatase (SHP) assay; assay type: cell-based; settings: Homo sapiens, U2OS; PathHunter chemiluminescence, 2 hours
Experimental: U2OS/PD-L1 cells (DiscoveRx Corporation) were maintained in McCoy's 5A medium with addition of 10% FBS, 0.25 μg/mL Puromycin. After removing the culture media, the cell medium was replaced with assay medium (RPMI1640 medium with 1% FBS). The U2OS/PD-L1 cells were then added in 384-well black clear bottom assay plate (CELLCOAT® Tissue Culture Plates, Greiner Bio-One) at 5000 cells per well in 20 μL assay medium. Test compounds were prepared by serial dilution in DMSO and 125 nL compound were first transferred to the 384 REMP plate well (Thermofisher) by ECHO liquid handler (Labcyte) followed with addition of 27.5 μL assay medium. 5 µL/well compounds in the assay medium were transferred to the cell plate with 0.05% DMSO in the final assay at 0.25 μM. Jurkat-PD-1-SHP cells (DiscoveRx Corporation) were cultured in RPMI1640 medium supplemented with 10% FBS, 250 μg/mL Hygromycin B, 500 μg/mL G418. After the replacement of culture media with assay medium, 5,000 Jurkat-PD-1-SHP cells in 20 μL were dispensed into each well. The assay plate was incubated at 37° C., 5% CO2 for 2 hours before 2.5 μL PathHunter reagent 1 (DiscoveRx Corporation) were added to each well. The assay plate was shaken for 1 min at 350 rpm in the dark followed with addition of 10 μL PathHunter reagent 2 (DiscoveRx Corporation). Chemiluminescent signal was recorded with TopCount reader (Perkin Elmer) after incubation at room temperature for 1 hour. Wells with DMSO were served as the positive controls and wells containing no cells were used as negative controls. IC50 determination was performed by fitting the curve of percentage of control activity versus the log of the compound concentration using the GraphPad Prism 6.0 software.

PD-L1 = PD-L1 (Homo sapiens (Human), UniProt Q9NZQ7); assay: PD-L1 whole blood internalization assay; assay type: cell-based; settings: PD-L1 internalization in human whole blood, CD14+ cells, interferon γ, 24 hour
Experimental: To determine PD-L1 internalization in human whole blood, normal human blood (Biological Specialty Corp, Colmar. Pa.) was incubated in the presence or absence of a concentration range of test compounds and 1 ng/mL human interferon γ (R&D Systems Inc. Minn. […] Blood was then stained with PD-L1 (MIH1, eBioscience; or BD Biosciences San Jose, Calif.), CD14 (Life Technologies, Carlsbad, Calif.) for 30 minutes in the dark at room temperature. Whole Blood/red cells were lysed/fixed (lysis buffer BD Biosciences) for 5 minutes at 37° C. in the dark and then centrifuged at 1600 RPM for 5 minutes. Cells were resuspended in Stain Buffer (BD Bioscience, San Jose, Calif.) and transferred into 96 well round bottom plates (Corning). Cells were gated on CD14+(BD Biosciences) and PD-L1 expression determined by mean fluorescence intensity (MFI) (BD LSRFortessa™ X-20). IC50 determination was performed by fitting the curve of compound percent inhibition versus the log of the compound concentration using the GraphPad Prism 7.0 software.

PD-L1, sequence (Q9NZQ7 19-290): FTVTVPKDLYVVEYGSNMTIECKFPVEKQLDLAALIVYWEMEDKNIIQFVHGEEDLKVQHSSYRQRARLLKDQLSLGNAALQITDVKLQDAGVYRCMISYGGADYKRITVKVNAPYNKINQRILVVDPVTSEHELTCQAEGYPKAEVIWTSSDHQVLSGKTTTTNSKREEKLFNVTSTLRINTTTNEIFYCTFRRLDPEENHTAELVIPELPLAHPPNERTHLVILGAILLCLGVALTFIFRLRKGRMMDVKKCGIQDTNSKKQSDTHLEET
PD-1/PD-L1, sequence (Q9NZQ7 19-238): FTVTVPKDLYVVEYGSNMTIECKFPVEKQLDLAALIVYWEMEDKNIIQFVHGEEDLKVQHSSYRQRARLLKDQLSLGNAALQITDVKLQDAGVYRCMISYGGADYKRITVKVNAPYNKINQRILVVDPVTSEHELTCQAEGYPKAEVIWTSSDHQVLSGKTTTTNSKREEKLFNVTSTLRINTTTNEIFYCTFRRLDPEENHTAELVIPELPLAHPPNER

| IC50 (PD-1/PD-L1) [nM] | IC50 [2] [nM] | IC50 (PD-L1) [nM] | Structure (SMILES) | EC50 [1] [nM] |
| --- | --- | --- | --- | --- |
| 1.5 | 4 | 35 | Cc1c(Nc2nc(C(F)F)nc3cc(CN4C[C@H](O)C[C@@H]4C)cnc23)cccc1-c1cccc(NC(=O)c2nc3c(n2C)CCN(CCC24CCC(C(=O)O)(CC2)C4)C3)c1Cl [Example 10, 4-(2-(2-((2-chloro-3′-((2-(difluoromethyl)-7-(((2S,4R)-4-hydroxy-2-methylpyrrolidin-1-yl)methyl)pyrido[3,2-d]pyrimidin-4-yl)amino)-2′-methyl-[1,1′-biphenyl]-3-yl)carbamoyl)-1-methyl-1,4,6,7-tetrahydro-5H-imidazo[4,5-c]pyridin-5-yl)ethyl)bicyclo[2.2.1]heptane-1-carboxylic Acid] | 4 |
| 1.5 | 3 | 27 | Cc1c(Nc2nc(C(F)F)nc3cc(CN4C[C@H](O)C[C@H]4C)cnc23)cccc1-c1cccc(NC(=O)c2nc3c(n2C)CCN(CCC24CCC(C(=O)O)(CC2)C4)C3)c1Cl [Example 11, 4-(2-(2-((2-chloro-3′-((2-(difluoromethyl)-7-(((2R,4R)-4-hydroxy-2-methylpyrrolidin-1-yl)methyl)pyrido[3,2-d]pyrimidin-4-yl)amino)-2′-methyl-[1,1′-biphenyl]-3-yl)carbamoyl)-1-methyl-1,4,6,7-tetrahydro-5H-imidazo[4,5-c]pyridin-5-yl)ethyl)bicyclo[2.2.1]heptane-1-carboxylic Acid] | 5 |
| 1.5 | 3 | 30 | Cc1c(Nc2nc(C(F)F)nc3cc(CN4C[C@@H](O)C[C@H]4C)cnc23)cccc1-c1cccc(NC(=O)c2nc3c(n2C)CCN(CCC24CCC(C(=O)O)(CC2)C4)C3)c1Cl [Example 12, 4-(2-(2-((2-chloro-3′-((2-(difluoromethyl)-7-(((2R,4S)-4-hydroxy-2-methylpyrrolidin-1-yl)methyl)pyrido[3,2-d]pyrimidin-4-yl)amino)-2′-methyl-[1,1′-biphenyl]-3-yl)carbamoyl)-1-methyl-1,4,6,7-tetrahydro-5H-imidazo[4,5-c]pyridin-5-yl)ethyl)bicyclo[2.2.1]heptane-1-carboxylic Acid] | 41 |
| 1.8 | 3 | 24 | Cc1c(Nc2nc(C(F)F)nc3cc(CN4CC(O)C4)cnc23)cccc1-c1cccc(NC(=O)c2nc3c(n2C)CCN(CCC24CCC(C(=O)O)(CC2)C4)C3)c1Cl [Example 13, 4-(2-(2-((2-chloro-3′-((2-(difluoromethyl)-7-((3-hydroxyazetidine-1-yl)methyl)pyrido[3,2-d]pyrimidin-4-yl)amino)-2′-methyl-[1,1′-biphenyl]-3-yl)carbamoyl)-1-methyl-1,4,6,7-tetrahydro-5H-imidazo[4,5-c]pyridin-5-yl)ethyl)bicyclo[2.2.1]heptane-1-carboxylic Acid] | 3 |
| 1.7 | 3 | 20 | Cc1c(Nc2nc(C(F)F)nc3cc(CN4CC(C)(O)C4)cnc23)cccc1-c1cccc(NC(=O)c2nc3c(n2C)CCN(CCC24CCC(C(=O)O)(CC2)C4)C3)c1Cl [Example 14, 4-(2-(2-((2-chloro-3′-((2-(difluoromethyl)-7-((3-hydroxy-3-methylazetidin-1-yl)methyl)pyrido[3,2-d]pyrimidin-4-yl)amino)-2′-methyl-[1,1′-biphenyl]-3-yl)carbamoyl)-1-methyl-1,4,6,7-tetrahydro-5H-imidazo[4,5-c]pyridin-5-yl)ethyl)bicyclo[2.2.1]heptane-1-carboxylic Acid] | 3 |
| 1.5 | 2.9 | 57 | Cc1c(NC(=O)c2nc3c(n2C)CCN(CCC24CCC(C(=O)O)(CC2)C4)C3)cccc1-c1cccc(Nc2nc(C(F)F)nc3cc(CN4CC[C@H](O)C4)cnc23)c1C [Example 15, (S)-4-(2-(2-((3′-((2-(difluoromethyl)-7-((3-hydroxypyrrolidin-1-yl)methyl)pyrido[3,2-d]pyrimidin-4-yl)amino)-2,2′-dimethyl-[1,1′-biphenyl]-3-yl)carbamoyl)-1-methyl-1,4,6,7-tetrahydro-5H-imidazo[4,5-c]pyridin-5-yl)ethyl)bicyclo[2.2.1]heptane-1-carboxylic Acid] | 9 |
| 1.7 | 2.4 | 53 | Cc1c(NC(=O)c2nc3c(n2C)CCN(CCC24CCC(C(=O)O)(CC2)C4)C3)cccc1-c1cccc(Nc2nc(C(F)F)nc3cc(CN4CC[C@](C)(O)C4)cnc23)c1C [Example 16, (S)-4-(2-(2-((3′-((2-(difluoromethyl)-7-((3-hydroxy-3-methylpyrrolidin-1-yl)methyl)pyrido[3,2-d]pyrimidin-4-yl)amino)-2,2′-dimethyl-[1,1′-biphenyl]-3-yl)carbamoyl)-1-methyl-1,4,6,7-tetrahydro-5H-imidazo[4,5-c]pyridin-5-yl)ethyl)bicyclo[2.2.1]heptane-1-carboxylic Acid] | 6 |
| 3.4 | 4.9 | 178 | Cc1c(NC(=O)c2nc3c(n2C)CCN(C)C3)cccc1-c1cccc(NC(=O)c2nc3c(n2C)CCN(CC24CCC(C(=O)O)(CC2)C4)C3)c1Cl [Example 119, reference compound] | 82 |
| 2.9 | 17 | 732 | CCN1CCc2c(nc(C(=O)Nc3cccc(-c4cccc(NC(=O)c5nc6c(n5C)CCN(CC57CCC(C(=O)O)(CC5)C7)C6)c4Cl)c3Cl)n2C)C1 [Example 176, reference compound] | 122 |
